The record followed here is BindingDB's records for doi:10.1124/jpet.104.068320 (Actelion Pharmaceuticals, 2004).

This experiment deals with T1, Urotensin-2 receptor (Rattus norvegicus, UniProt P49684).
T1 sequence (P49684 whole entry): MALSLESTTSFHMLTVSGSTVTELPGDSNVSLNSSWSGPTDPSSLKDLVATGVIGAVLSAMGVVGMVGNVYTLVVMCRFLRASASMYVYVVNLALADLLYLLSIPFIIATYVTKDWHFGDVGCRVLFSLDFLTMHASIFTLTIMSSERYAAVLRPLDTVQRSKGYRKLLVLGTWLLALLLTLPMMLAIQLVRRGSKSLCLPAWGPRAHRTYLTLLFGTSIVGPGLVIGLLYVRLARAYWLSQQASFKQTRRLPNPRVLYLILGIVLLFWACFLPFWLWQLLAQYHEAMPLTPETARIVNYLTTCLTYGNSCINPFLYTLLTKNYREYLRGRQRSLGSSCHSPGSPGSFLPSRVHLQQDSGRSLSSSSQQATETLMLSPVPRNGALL

As a reminder, the Ki is a dissociation constant, usually derived from enzyme kinetics or from competition with a known ligand. Read a high Ki as a looser hold on the target. In turn, `Cc1cc(NC(=O)NCCN2CCC(O)(Cc3ccccc3)CC2)c2ccccc2n1` [ACT-058362] registered a Ki of 1.47 µM.
